Results as given in US6737383B1, “Herbicidal oxadiazolidines” (priority 1999, dated 2004).

How the values were obtained:
[1] = tested on: smallflower flatsedge; assay: Test B flood test smallflower flatsedge; assay type: in vivo, Cyperus difformis
Procedure, shortened: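 Plants were grown to the 2-leaf stage before treatment with test chemical, then held in a greenhouse for twelve to sixteen days. Injury was visually rated against untreated controls on a 0–10 scale, where 0 is no effect and 10 is complete control.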

[2] = tested on: blackgrass; assay: Test E blackgrass; assay type: in vivo, Alopecurus myosuroides; conditions: Preemergence
[3] = tested on: winter wheat; assay: Test E winter wheat; assay type: in vivo, Triticum aestivum; conditions: Postemergence
Procedure, shortened: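 Plants were grown under normal greenhouse practice; for postemergence, in sandy loam soil mixed 60:40 with potting mix, treated at the 1- to 4-leaf stage. The compound was in a non-phytotoxic solvent carrying a surfactant. After roughly 21 to 28 days plants were scored visually against untreated plants.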

[4] = tested on: winter wheat; assay: Test E winter wheat; assay type: in vivo, Triticum aestivum; conditions: Preemergence
[5] = tested on: surinam grass; assay: Test B pre/postemergence surinam grass; assay type: in vivo, Brachiaria decumbens
Procedure, shortened: (§1)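 Test chemicals in a non-phytotoxic solvent mixture with surfactant were sprayed preemergence onto planted seeds and postemergence onto plants 2 to 18 cm tall (1- to 4-leaf stage). After twelve to sixteen days in a greenhouse, injury was visually rated against untreated controls from 0 (no effect) to 10 (complete control).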

[6] = tested on: wild oat; assay: Test E wild oat; assay type: in vivo, Avena fatua; conditions: Preemergence; for Plant response rating, Wild oat: 0 to 100 scale where 0 is no effect and 100 is complete control
[7] = tested on: green foxtail; assay: Test E green foxtail; assay type: in vivo, Setaria viridis; conditions: Preemergence
[8] = tested on: Italian ryegrass; assay: Test E Italian ryegrass; assay type: in vivo, Lolium multiflorum; conditions: Preemergence
[9] = tested on: blackgrass; assay: Test B pre/postemergence blackgrass; assay type: in vivo, Alopecurus myosuroides
Procedure, shortened: as §1

[10] = tested on: bedstraw; assay: Test B pre/postemergence bedstraw; assay type: in vivo, Galium aparine
Procedure, shortened: as §1

[11] = tested on: winter barley; assay: Test E winter barley; assay type: in vivo, Hordeum vulgare; conditions: Preemergence
[12] = Rate 500 g/ha, 0 to 100 scale where 0 is no effect and 100 is complete control
[13] = Rate 1000 g/ha, 0 to 100 scale where 0 is no effect and 100 is complete control
[14] = Rate 1000 g/ha, 0 to 100 scale, 0 is no effect and 100 is complete control
[15] = Preemergence, Rate 62 g/ha, scale of 0 to 10 where 0 is no effect and 10 is complete control
[16] = Preemergence, Rate 125 g/ha, 0 is no effect, 10 is complete control
[17] = Preemergence, Rate 250 g/ha, scale 0 to 10, 0 is no effect, 10 is complete control
[18] = Preemergence, Rate 500 g/ha, scale of 0 to 10 where 0 is no effect and 10 is complete control
[19] = Rate 62 g/ha, Postemergence, scale of 0 to 10 where 0 is no effect and 10 is complete control
[20] = Rate 500 g/ha, Postemergence, scale 0 to 10, 0 no effect, 10 complete control
[21] = Rate 125 g/ha, Postemergence, scale 0 to 10
[22] = Rate 500 g/ha, Postemergence, scale 0 to 10
[23] = Postemergence, Rate 62 g/ha, scale 0 to 10, 0 is no effect, 10 is complete control
[24] = Postemergence, Rate 250 g/ha, scale 0 to 10, 0 no effect, 10 complete control
[25] = Preemergence, Rate 62 g/ha, scale 0 to 10 (0 no effect, 10 complete control)
[26] = Preemergence, Rate 125 g/ha, scale 0 to 10 (0 no effect, 10 complete control)
[27] = Preemergence, Rate 250 g/ha, scale of 0 to 10 where 0 is no effect and 10 is complete control
[28] = Preemergence, Rate 500 g/ha, scale 0 (no effect) to 10 (complete control)
[29] = Rate 125 g/ha, Postemergence, scale 0 to 10, 0 no effect, 10 complete control

CC(C)N(C(=O)n1oc(=O)n(Cc2ccco2)c1=O)c1ccc(F)cc1 [Compound 207]
S. Flatsedge plant response rating ([1]; Rate 62 g/ha, headed Pre-emergence (flood test species), scale 0 to 10 (0 no effect, 10 complete control)): 0 | S. Flatsedge plant response rating ([1]; Rate 125 g/ha, Pre-emergence, flood test species, scale 0 to 10 where 0 is no effect and 10 is complete control): 0 | S. Flatsedge plant response rating ([1]; Rate 250 g/ha, Pre-emergence, flood-test species, scale 0 to 10, 0 is no effect, 10 is complete control): 0 | S. Flatsedge plant response rating ([1]; Rate 500 g/ha, Pre-emergence, flood test species, scale 0 to 10 (0 no effect, 10 complete control)): 0 | Blackgrass plant response rating (0 to 100 scale) ([2]; Rate 250 g/ha): 30 | Plant response rating, Blackgrass [2, 12]: 80 | Plant response rating, Blackgrass [2, 13]: 85 | Plant response rating, Wheat (winter) [3, 14]: 50 | Plant response rating, Wheat (winter) ([3]; Rate 500 g/ha, 0 to 100 scale, 0 is no effect, 100 is complete control): 30 | Wheat (winter) plant response rating (0 to 100 scale) ([4]; Rate 250 g/ha): 60 | Plant response rating, Wheat (winter) [4, 12]: 70 | Plant response rating, Wheat (winter) [4, 13]: 70 | B. signalgrass plant response rating [5, 15]: 0 | B. signalgrass plant response rating (0 to 10 scale) [5, 16]: 0 | B. signalgrass plant response rating [5, 17]: 0 | Plant response rating, B. signalgrass [5, 18]: 0 | B. signalgrass plant response rating [5, 19]: 0 | B. signalgrass plant response rating ([5]; Rate 125 g/ha, Postemergence, scale 0 (no effect) to 10 (complete control)): 0 | Plant response rating, B. signalgrass ([5]; Rate 250 g/ha, Postemergence, scale 0 to 10, 0 is no effect, 10 is complete control): 0 | B. signalgrass plant response rating [5, 20]: 0 | Wild oat plant response rating (0 to 100 scale) ([6]; Rate 250 g/ha): 65 | Plant response rating, Wild oat ([6]; Rate 500 g/ha): 70 | Plant response rating, Wild oat ([6]; Rate 1000 g/ha): 70 | Green foxtail plant response rating (0 to 100 scale) ([7]; Rate 250 g/ha): 80 | Plant response rating, Green foxtail [7, 12]: 90 | Plant response rating, Green foxtail [7, 13]: 100 | I. Ryegrass plant response rating (0 to 100 scale) ([8]; Rate 250 g/ha): 40 | Plant response rating, I. Ryegrass [8, 12]: 55 | Plant response rating, I. Ryegrass [8, 13]: 30 | Blackgrass plant response rating [9, 15]: 0 | Blackgrass plant response rating (0 to 10 scale) [9, 16]: 0 | Blackgrass plant response rating [9, 17]: 4 | Plant response rating, Blackgrass [9, 18]: 7 | Blackgrass plant response rating [9, 19]: 0 | Blackgrass plant response rating [9, 21]: 2 | Plant response rating (0 to 10; 0 is no effect, 10 is complete control), Blackgrass ([9]; Rate 250 g/ha, Postemergence): 2 | Blackgrass plant response rating [9, 22]: 4 | Bedstraw plant response rating [10, 15]: 0 | Bedstraw plant response rating (0 to 10 scale) [10, 16]: 0 | Bedstraw plant response rating [10, 17]: 0 | Plant response rating, Bedstraw [10, 18]: 0 | Bedstraw plant response rating [10, 19]: 0 | Bedstraw plant response rating [10, 21]: 0 | Plant response rating (0 to 10; 0 is no effect, 10 is complete control), Bedstraw ([10]; Rate 250 g/ha, Postemergence): 5 | Bedstraw plant response rating [10, 22]: 5 | Barley (winter) plant response rating (0 to 100 scale) ([11]; Rate 250 g/ha): 65 | Plant response rating, Barley (winter) [11, 12]: 70 | Plant response rating, Barley (winter) [11, 13]: 80

Cc1ccccc1Cn1c(=O)on(C(=O)N(c2ccc(F)cc2)C(C)C)c1=O [Compound 88]
Plant response rating, Blackgrass ([2]; Rate 250 g/ha, 0 to 100 scale): 50 | Plant response rating, Blackgrass [2, 13]: 50 | Plant response rating, Wheat (winter) ([3]; Rate 250 g/ha, 0 to 100 scale (0 no effect, 100 complete control)): 0 | Plant response rating, Wheat (winter) [3, 14]: 10 | Plant response rating, Wheat (winter) ([4]; Rate 250 g/ha, 0 to 100 scale): 0 | Plant response rating, Wheat (winter) [4, 13]: 10 | B. signalgrass plant response rating [5, 23]: 0 | B. signalgrass plant response rating [5, 24]: 0 | B. signalgrass plant response rating [5, 25]: 0 | Plant response rating, B. signalgrass [5, 26]: 2 | Plant response rating, B. signalgrass [5, 27]: 2 | B. signalgrass plant response rating [5, 28]: 5 | B. signalgrass plant response rating [5, 29]: 2 | B. signalgrass plant response rating ([5]; Rate 500 g/ha, Postemergence, scale of 0 to 10 where 0 is no effect and 10 is complete control): 2 | Plant response rating, Wild oat ([6]; Rate 1000 g/ha): 20 | Plant response rating, Green foxtail ([7]; Rate 250 g/ha, 0 to 100 scale): 60 | Plant response rating, Green foxtail [7, 13]: 85 | Plant response rating, I. Ryegrass ([8]; Rate 250 g/ha, 0 to 100 scale): 10 | Plant response rating, I. Ryegrass [8, 13]: 50 | Blackgrass plant response rating [9, 23]: 2 | Blackgrass plant response rating ([9]; Postemergence, Rate 125 g/ha, scale of 0 to 10 where 0 is no effect and 10 is complete control): 5 | Blackgrass plant response rating [9, 24]: 6 | Blackgrass plant response rating [9, 25]: 1 | Plant response rating, Blackgrass [9, 26]: 4 | Plant response rating, Blackgrass [9, 27]: 4 | Blackgrass plant response rating [9, 28]: 6 | Blackgrass plant response rating [9, 20]: 6 | Bedstraw plant response rating [10, 23]: 3 | Bedstraw plant response rating [10, 24]: 9 | Bedstraw plant response rating [10, 25]: 0 | Plant response rating, Bedstraw [10, 26]: 0 | Plant response rating, Bedstraw [10, 27]: 0 | Bedstraw plant response rating [10, 28]: 2 | Bedstraw plant response rating [10, 29]: 8 | Bedstraw plant response rating [10, 20]: 9 | Plant response rating, Barley (winter) ([11]; Rate 250 g/ha, 0 to 100 scale): 0 | Plant response rating, Barley (winter) [11, 13]: 0
